Turning to `*/C(C)=C(/*)CCC` (repeat unit), the glass transition temperature was 200.00 °C.
Then `*=NP(=NP(=NC(=*)Oc1ccc(Br)cc1)(Oc1ccc(Br)cc1)Oc1ccc(Br)cc1)(Oc1ccc(Br)cc1)Oc1ccc(Br)cc1` (repeat unit), with 45.00 °C; and `*CC(*)(C#N)C(=O)OC` (repeat unit), with 147.50 °C.
`*CC(*)(C#N)C(=O)OCCCC` (repeat unit) gave a glass transition temperature of 117.00 °C.
`*CC(*)(C(=O)OC)c1ccccc1` (repeat unit) showed a glass transition temperature of 121.00 °C.
As for `*CC(*)(C)C(=O)NC(=O)Oc1ccc(S(=O)(=O)c2ccc(O)cc2)cc1` (repeat unit), the glass transition temperature was 182.00 °C.
Then `*CC(*)(C)C(=O)NC1C(O)OC(CO)C(O)C1O` (repeat unit), with 90.50 °C; and `*CC(*)(C)C(=O)Nc1cccc(-c2nnc(-c3ccccc3)o2)c1` (repeat unit), with 65.00 °C; and `*CC(*)(C)C(=O)OC(C)C(C)(C)C` (repeat unit), with 108.00 °C.
Next, `*CC(*)(C)C(=O)OC(COc1cc2ccccc2c2ccccc12)COc1cc2ccccc2c2ccccc12` (repeat unit): 112.00 °C; `*CC(*)(C)C(=O)OC(COc1ccc(-c2ccccc2)cc1)COc1ccc(-c2ccccc2)cc1` (repeat unit): 85.00 °C.
Then `*CC(*)(C)C(=O)OC(OCC)C(F)(F)F` (repeat unit), with 60.00 °C.
`*CC(*)(C)C(=O)OC1(C)CCCN(c2ccc(/N=N/c3ccc(/C=C(\C#N)S(C)(=O)=O)cc3)cc2)C1` (repeat unit) gave a glass transition temperature of 196.00 °C.
Next, `*CC(*)(C)C(=O)OC12CC3CC(C)(CC(C)(C3)C1)C2` (repeat unit): 194.00 °C; `*CC(*)(C)C(=O)OC1CCC(C(C)(C)C)CC1` (repeat unit): 100.00 °C; `*CC(*)(C)C(=O)OC1CCCCC1C(C)(C)C` (repeat unit): 185.00 °C.
As for `*CC(*)(C)C(=O)OC1CCOCC1` (repeat unit), the glass transition temperature worked out at 153.50 °C.
In the case of `*CC(*)(C)C(=O)OCC#C` (repeat unit), the glass transition temperature turned out to be 58.00 °C.
As to `*CC(*)(C)C(=O)OCC(=O)N1CCOCC1` (repeat unit), the glass transition temperature worked out at 128.00 °C.
Then `*CC(*)(C)C(=O)OCC(CC)CCCC` (repeat unit), with -10.00 °C.
For `*CC(*)(C)C(=O)OCC(F)(F)C(F)(F)C(F)(F)C(F)(F)C(F)(F)C(F)(F)C(F)(F)C(F)F` (repeat unit), the glass transition temperature was -15.00 °C.
Then `*CC(*)(C)C(=O)OCC1(CC)COC1` (repeat unit), with 105.00 °C.
`*CC(*)(C)C(=O)OCC1CO1` (repeat unit) registered a glass transition temperature of 68.50 °C.
Take `*CC(*)(C)C(=O)OCC1COC(=O)O1` (repeat unit): the glass transition temperature amounted to 124.00 °C.
Then `*CC(*)(C)C(=O)OCCC(F)(F)C(F)(F)C(F)(F)C(F)(F)F` (repeat unit), with 23.00 °C; and `*CC(*)(C)C(=O)OCCC1CC[N+](C)(CCCCCCOc2ccc(/N=N/c3ccc([N+](=O)[O-])cc3)cc2)CC1` (repeat unit), with 57.80 °C.
`*CC(*)(C)C(=O)OCCCCC` (repeat unit) registered a glass transition temperature of 10.00 °C.
Next, `*CC(*)(C)C(=O)OCCCCCC(=O)Oc1ccc(OC(=O)c2ccc(OCC)cc2)cc1` (repeat unit): 43.00 °C; `*CC(*)(C)C(=O)OCCCCCC(=O)Oc1ccc(OC(=O)c2ccc(OCCC)cc2)cc1` (repeat unit): 45.00 °C; `*CC(*)(C)C(=O)OCCCCCCCCCCCCCCC(=O)NC1OC(CO)C(OC2OC(CO)C(O)C(O)C2O)C(O)C1O` (repeat unit): 133.00 °C.
For the compound `*CC(*)(C)C(=O)OCCCCCCCCCCCCCCC(=O)NC1OC(COC(C)=O)C(OC2OC(COC(C)=O)C(OC(C)=O)C(OC(C)=O)C2OC(C)=O)C(OC(C)=O)C1OC(C)=O` (repeat unit), the glass transition temperature was found to be 95.20 °C.
Consider `*CC(*)(C)C(=O)OCCCCCCCCCCCCCCCCCC` (repeat unit), for which the glass transition temperature was -100.00 °C.
Next, `*CC(*)(C)C(=O)OCCCCCCCCCCCCOc1ccc(C(=O)Oc2ccc(-c3cccc(OC(=O)c4ccc(OC(=O)c5ccc(OCCCCCCCCCCCC)cc5)cc4)c3)cc2)cc1` (repeat unit): 74.50 °C; `*CC(*)(C)C(=O)OCCCCCCCCCCCOc1ccc(C(=O)Oc2ccc(C#N)cc2)cc1` (repeat unit): 10.00 °C.
The compound `*CC(*)(C)C(=O)OCCCCCCCCCCCOc1ccc2cc(C(=O)Oc3ccccc3)ccc2c1` (repeat unit) yielded a glass transition temperature of 10.00 °C.
Then `*CC(*)(C)C(=O)OCCCCCCCCCCOc1ccc(/N=N/c2ccc(Cl)cc2)cc1` (repeat unit), with 54.00 °C.
Then `*CC(*)(C)C(=O)OCCCCCCCCCCOc1ccc(/N=N/c2ccc(F)cc2)cc1` (repeat unit), with 49.00 °C; and `*CC(*)(C)C(=O)OCCCCCCCCCCOc1ccc(/N=N/c2ccc(OC)cc2)cc1` (repeat unit), with 62.00 °C; and `*CC(*)(C)C(=O)OCCCCCCCCCCOc1ccc(/N=N/c2ccc([N+](=O)[O-])cc2)cc1` (repeat unit), with 55.00 °C.
`*CC(*)(C)C(=O)OCCCCCCCCCCOc1ccc(C#Cc2cc(OC)c(/C=C/c3ccncc3)cc2OC)cc1` (repeat unit) registered a glass transition temperature of 87.10 °C.
Then `*CC(*)(C)C(=O)OCCCCCCCCCCOc1ccc(C(=O)Oc2ccc(C(=O)/C=C/c3c(C)c4ccccc4n3C)cc2)cc1` (repeat unit), with 72.00 °C; and `*CC(*)(C)C(=O)OCCCCCCCCCCOc1ccc(C(=O)Oc2ccc(C(=O)/C=C/c3c(C)c4ccccc4n3CCCC)cc2)cc1` (repeat unit), with 57.00 °C; and `*CC(*)(C)C(=O)OCCCCCCCCCCOc1ccc(OC(=O)c2ccc(-c3ccc(OC)cc3)cc2)cc1` (repeat unit), with 57.00 °C.
Then `*CC(*)(C)C(=O)OCCCCCCCCCCOc1ccc(OC(=O)c2ccc(OCCCC)cc2)cc1` (repeat unit), with 31.00 °C; and `*CC(*)(C)C(=O)OCCCCCCCCCCn1c2ccccc2c2cc(/C=C(\C#N)C(=O)OC)ccc21` (repeat unit), with 58.00 °C; and `*CC(*)(C)C(=O)OCCCCCCCCOc1ccc(/N=N/c2ccc(C3OCC4(CO3)CC3C=CC4C3)cc2)cc1` (repeat unit), with 106.20 °C.
For the compound `*CC(*)(C)C(=O)OCCCCCCCCOc1ccc(C(=O)Oc2ccc(C(=O)/C=C/c3c(C)c4ccccc4n3C)cc2)cc1` (repeat unit), the glass transition temperature was 75.00 °C.
Turning to `*CC(*)(C)C(=O)OCCCCCCN(C)c1ccc(N(C)C)cc1` (repeat unit), the glass transition temperature amounted to 8.50 °C.
Then `*CC(CS(=O)(=O)C(C)C)O*` (repeat unit), with 64.00 °C.
Next, `*CC(CS(=O)(=O)CCCCC)O*` (repeat unit): 39.00 °C.
Then `*CC(CS(C)(=O)=O)O*` (repeat unit), with 85.00 °C; and `*CC(C[N-][N+]#N)O*` (repeat unit), with -35.00 °C.
With `*CC(C[Si](*)(C)C)c1cccc2ccccc12` (repeat unit), the glass transition temperature was found to be 39.00 °C.
Then `*CC(Cc1cccc2ccccc12)C[Si](*)(C)C` (repeat unit), with 17.00 °C; and `*CC(F)(F)C1(F)C(*)CC(O)(C(F)(F)F)C1(F)F` (repeat unit), with 152.00 °C; and `*CC(O)C(O)CN(*)c1ccc(N(C)C)cc1` (repeat unit), with 72.00 °C.
Then `*CC(O)CN(C)S(=O)(=O)c1cccc(S(=O)(=O)N(C)CC(O)COc2ccc(-c3ccc(O*)cc3)cc2)c1` (repeat unit), with 58.00 °C.
Then `*CC(O)CN(C)S(=O)(=O)c1cccc(S(=O)(=O)N(C)CC(O)COc2ccc(C3(c4ccc(O*)cc4)c4ccccc4-c4ccccc43)cc2)c1` (repeat unit), with 127.00 °C; and `*CC(O)CN(CC(O)CN(*)c1ccccc1)c1ccc(/N=N/c2ccc([N+](=O)[O-])cc2)cc1` (repeat unit), with 70.00 °C.
In turn, `*CC(O*)C1CC(F)(F)C1(F)F` (repeat unit) gave a glass transition temperature of -25.00 °C.
For `*CC(O*)c1ccco1` (repeat unit), the glass transition temperature worked out at 12.50 °C.
Then `*CC(OCC(C)C)C(C(=O)OC)C(*)C(=O)OC` (repeat unit), with 44.50 °C; and `*CC(OCC(C)C)C(C)(C(=O)OC)C(*)(C)C(=O)OC` (repeat unit), with 125.50 °C.
Regarding `*CC(S*)c1ccccc1` (repeat unit), the glass transition temperature is -2.50 °C.
Then `*CCCCOC(=O)Nc1ccc(Cc2ccc(NC(=O)OCCCCn3c4ccccc4c4cc(/C=C(\C#N)C(=O)OCCCCCCOC(=O)/C(C#N)=C/c5ccc6c(c5)c5ccccc5n6*)ccc43)cc2)cc1` (repeat unit), with 122.00 °C; and `*N=P(N=P(/N=S(/*)Oc1ccc(C(C)(C)C)cc1)(Oc1ccc(-c2ccccc2)cc1)Oc1ccc(-c2ccccc2)cc1)(Oc1ccc(-c2ccccc2)cc1)Oc1ccc(-c2ccccc2)cc1` (repeat unit), with 54.00 °C; and `*N=P(N=P(N=S(*)(=O)NCC=C)(NCC=C)NCC=C)(NCC=C)NCC=C` (repeat unit), with -18.00 °C.
Next, `*N=P(N=P(N=S(*)(=O)Nc1ccccc1)(Nc1ccccc1)Nc1ccccc1)(Nc1ccccc1)Nc1ccccc1` (repeat unit): 82.00 °C; `*OC(COc1ccccc1)CC(*)=O` (repeat unit): 20.00 °C.

These data come from the PolyMetriX glass transition set.
